Measurements published in patent US20200392126A1, “ISOXAZOLYL COMPOUNDS AS RECEPTOR MODULATING COMPOUNDS AND METHODS AND USES THEREOF” (BIONOMICS LIMITED, priority 2017, published 2020).

Each compound was assayed against T1, hnAChR α7/ric3 (Homo sapiens, UniProt P36544) (assay: IonFlux HT electrophysiological recording of hnAChR α7/ric3 currents, inhibition of ACh (200 μM, EC80) peak current). Conditions: not given.
T1 construct: expressed in transfected cells
Type: cell-based
Protocol: All wells included a final DMSO concentration of 0.33% including all control wells.
The solutions for recording hnAChR α7/ric3 currents were:
All recordings were obtained from a holding potential of −60 mV.
Compounds were assayed using bump-in protocol. The compound addition sequence that was used for all additions was the same for all assays. One addition of the EC80 concentration of ACh (200 μM) was added to establish baseline response. The test compounds were tested on cells in increasing concentrations of 0.12, 0.37, 1.1, 3.3, 10 μM±200 μM ACh for all compounds. Each compound was applied for one minutes followed by the addition of 200 μM ACh for 1 second.
Peak inward currents in response to the ACh additions in the presence of increasing concentrations of compound were measured.
Potentiation of ACh Response=(I^Compound^+^ACh/I^ACh)
All data were first exported to an Excel compatible data file and then analyzed using Graph Pad Prism software.

T1 sequence (P36544 23-502): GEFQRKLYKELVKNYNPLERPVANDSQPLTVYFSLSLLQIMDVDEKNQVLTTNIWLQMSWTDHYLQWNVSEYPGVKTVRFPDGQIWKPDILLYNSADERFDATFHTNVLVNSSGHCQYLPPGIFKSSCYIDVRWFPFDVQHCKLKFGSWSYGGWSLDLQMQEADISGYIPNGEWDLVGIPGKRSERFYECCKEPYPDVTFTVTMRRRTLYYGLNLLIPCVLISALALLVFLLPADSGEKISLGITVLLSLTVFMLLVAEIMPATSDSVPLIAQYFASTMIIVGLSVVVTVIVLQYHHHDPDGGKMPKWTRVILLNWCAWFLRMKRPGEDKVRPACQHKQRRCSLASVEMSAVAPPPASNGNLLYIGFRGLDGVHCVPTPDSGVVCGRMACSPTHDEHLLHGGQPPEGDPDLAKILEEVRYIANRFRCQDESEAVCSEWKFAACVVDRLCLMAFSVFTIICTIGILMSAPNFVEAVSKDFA

SMILES | IC50
Cc1nocc1S(=O)(=O)NC1(c2ccccc2)CCCCC1 [Compound 1, 3-Methyl-N-(1-phenylcyclohexyl)isoxazole-4-sulfonamide] | 5700 nM
Cc1nocc1S(=O)(=O)N1CCN(c2ccc(F)cc2)CC1 [Compound 8, 4-(4-(4-Fluorophenyl)piperazin-1-ylsulfonyl)-3-methylisoxazole] | 2200 nM

Same assay, conditions: hnAChR α7/ric3; 0.12-10 μM compound, 1 min preincubation, then 200 μM ACh for 1 s; holding potential −60 mV; read-out: IC50

SMILES | IC50
Cc1nocc1S(=O)(=O)NCCc1ccccc1 [Compound 2, 3-Methyl-N-phenethylisoxazole-4-sulfonamide] | 1700 nM
Cc1nocc1S(=O)(=O)NCCc1ccc(F)cc1 [Compound 3, N-(4-Fluorophenethyl)-3-methylisoxazole-4-sulfonamide] | 2200 nM
Cc1nocc1S(=O)(=O)N1CCC(c2ccc(F)cc2)CC1 [Compound 7] | 400 nM
Cc1nocc1S(=O)(=O)N1CCN(c2ccccn2)CC1 [Compound 10, 3-Methyl-4-(4-(pyridin-2-yl)piperazin-1-ylsulfonyl)isoxazole] | 6500 nM
Cc1nocc1S(=O)(=O)N1CCc2ccccc2CC1 [Compound 11, 3-Methyl-4-((1,2,4,5-tetrahydro-3H-benzo[d]azepin-3-yl)sulfonyl)isoxazole] | 2900 nM
